According to EP4026700A1, “INPRINTING” (Smart Coloring GmbH, priority 2021, dated 2022):

Assay: Solubility in double distilled water
Format: physicochemical

solubility in double distilled water: about 14 mg/l
Substance: Disperse Blue 56
